The values that follow come from paper PMC7803991, “Prediction of pharmacological activities from chemical structures with graph convolutional neural networks” (Scientific Reports, 2021).

Where a name gives a salt, the structure may show the parent alone.

In this assay the target is T1, serotonin transporter (SERT) (Homo sapiens, UniProt P31645).
T1 construct: gene SLC6A4
Nature of the assay: cell-based.

T1 sequence (P31645 whole entry): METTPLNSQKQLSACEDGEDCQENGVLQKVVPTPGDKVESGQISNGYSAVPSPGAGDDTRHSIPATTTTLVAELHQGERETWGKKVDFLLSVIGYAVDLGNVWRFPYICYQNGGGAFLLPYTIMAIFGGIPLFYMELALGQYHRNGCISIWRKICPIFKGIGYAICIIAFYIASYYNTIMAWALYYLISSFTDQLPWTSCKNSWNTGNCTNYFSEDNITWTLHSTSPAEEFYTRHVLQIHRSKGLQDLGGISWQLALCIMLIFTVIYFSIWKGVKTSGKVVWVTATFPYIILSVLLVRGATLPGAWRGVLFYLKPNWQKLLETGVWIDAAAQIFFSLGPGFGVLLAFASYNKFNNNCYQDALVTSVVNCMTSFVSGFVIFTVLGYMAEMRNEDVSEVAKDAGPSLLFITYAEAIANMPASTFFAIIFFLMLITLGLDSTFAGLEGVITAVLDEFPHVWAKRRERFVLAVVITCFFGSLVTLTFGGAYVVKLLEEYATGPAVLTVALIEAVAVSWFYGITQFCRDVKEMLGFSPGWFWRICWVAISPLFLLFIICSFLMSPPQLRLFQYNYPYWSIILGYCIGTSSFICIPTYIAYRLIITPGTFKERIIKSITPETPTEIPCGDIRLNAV

In the case of `Clc1ccc2sc(C3CCNCC3)nc2c1` [compound 1, 5-chloro-2-(piperidin-4-yl)-1,3-benzothiazole hydrochloride], inhibition was half-maximal at 6.24 nM (IC50).
